In ChEMBL document CHEMBL1131286, “Design and synthesis of m1-selective muscarinic agonists: (R)-(-)-(Z)-1-Azabicyclo[2.2.1]heptan-3-one, O-(3-(3'-methoxyphenyl)-2-propynyl)oxime maleate (CI-1017), a functionally m1-selective muscarinic agonist” (J Med Chem, 1998):
One block for each compound: values may come before it. Active and inactive are the calls of the source. No cut-off for these calls is given here.

Tests used:
[1] = target: Muscarinic acetylcholine receptor (Rattus norvegicus) (UniProt P08482+P08483+P08485+P08911+P10980); test: Ratio of QNB binding to CMD binding was evaluated; assay type: protein assay
[2] = target: T1, Muscarinic acetylcholine receptor M1 (Homo sapiens, UniProt P11229); test: Binding affinity of compound labeled by [3H]QNB in CHO cells selectively expressing human Muscarinic acetylcholine receptor M1; assay type: cell-based
T1 sequence (P11229 whole entry): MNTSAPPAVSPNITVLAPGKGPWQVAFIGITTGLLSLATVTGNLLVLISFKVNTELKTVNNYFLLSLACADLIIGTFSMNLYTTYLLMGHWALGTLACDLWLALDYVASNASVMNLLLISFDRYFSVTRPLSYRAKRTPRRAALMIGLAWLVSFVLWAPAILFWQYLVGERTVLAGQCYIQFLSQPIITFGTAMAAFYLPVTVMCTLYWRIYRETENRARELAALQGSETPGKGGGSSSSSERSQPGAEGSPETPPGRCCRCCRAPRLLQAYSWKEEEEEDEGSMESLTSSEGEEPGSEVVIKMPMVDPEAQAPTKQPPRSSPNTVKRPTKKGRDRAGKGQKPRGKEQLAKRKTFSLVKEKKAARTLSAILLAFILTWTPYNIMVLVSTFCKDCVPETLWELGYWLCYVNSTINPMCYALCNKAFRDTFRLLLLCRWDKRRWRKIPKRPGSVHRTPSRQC

[3] = target: Muscarinic acetylcholine receptor; test: Muscarinic acetylcholine receptor binding assay was conducted using [3H]cis-methyldioxolane (CMD) to label agonist sites in membrane preparations from rat neocortex
[4] = target: Muscarinic acetylcholine receptor; test: Muscarinic acetylcholine receptor binding assay was conducted using [3H]quinuclidinyl benzilate (QNB) to label antagonist sites in membrane preparations from rat neocortex
[5] = target: T2, Muscarinic acetylcholine receptor M2 (Homo sapiens, UniProt P08172); test: Binding affinity of compound labeled by [3H]QNB in CHO cells selectively expressing human Muscarinic acetylcholine receptor M2; assay type: cell-based
T2 sequence (P08172 whole entry): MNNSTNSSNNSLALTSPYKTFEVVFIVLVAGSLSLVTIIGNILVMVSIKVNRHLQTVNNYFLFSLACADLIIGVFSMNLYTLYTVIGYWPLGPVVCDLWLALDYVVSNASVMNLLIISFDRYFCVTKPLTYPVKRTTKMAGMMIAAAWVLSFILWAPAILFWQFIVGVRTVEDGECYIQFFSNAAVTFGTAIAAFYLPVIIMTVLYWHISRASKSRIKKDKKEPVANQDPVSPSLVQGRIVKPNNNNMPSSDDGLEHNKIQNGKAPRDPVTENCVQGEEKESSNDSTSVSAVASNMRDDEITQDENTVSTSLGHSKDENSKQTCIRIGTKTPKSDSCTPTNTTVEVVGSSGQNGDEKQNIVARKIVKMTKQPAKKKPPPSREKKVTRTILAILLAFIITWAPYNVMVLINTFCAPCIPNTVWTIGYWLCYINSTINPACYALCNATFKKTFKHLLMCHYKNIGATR

[6] = target: T3, Muscarinic acetylcholine receptor M1 (Homo sapiens) (UniProt P11229); test: Stimulations of inositol phosphate(PI) accumulation in transfected CHO cells in Muscarinic acetylcholine receptor M1 values are the maximal response obtained from the compound tested at 100 uM normalized to the effects of carbachol.; assay type: functional, cell-based
T3 sequence (whole entry): T1 sequence (P11229 whole entry)

[7] = target: T1, Muscarinic acetylcholine receptor M1; test: biochemical; assay type: cell-based, CHO
Description: Binding affinity of [3H]-QNB to CHO cells expressing human Muscarinic acetylcholine receptor M1

[8] = target: Muscarinic acetylcholine receptor M3 (Homo sapiens) (UniProt P20309); test: Inositol phosphate(PI) accumulation in CHO cells expressing Muscarinic acetylcholine receptor M3 as maximal response at 100 uM relative to carbachol; assay type: functional, cell-based
Muscarinic acetylcholine receptor M3 (Homo sapiens), sequence (P20309 whole entry, looked up): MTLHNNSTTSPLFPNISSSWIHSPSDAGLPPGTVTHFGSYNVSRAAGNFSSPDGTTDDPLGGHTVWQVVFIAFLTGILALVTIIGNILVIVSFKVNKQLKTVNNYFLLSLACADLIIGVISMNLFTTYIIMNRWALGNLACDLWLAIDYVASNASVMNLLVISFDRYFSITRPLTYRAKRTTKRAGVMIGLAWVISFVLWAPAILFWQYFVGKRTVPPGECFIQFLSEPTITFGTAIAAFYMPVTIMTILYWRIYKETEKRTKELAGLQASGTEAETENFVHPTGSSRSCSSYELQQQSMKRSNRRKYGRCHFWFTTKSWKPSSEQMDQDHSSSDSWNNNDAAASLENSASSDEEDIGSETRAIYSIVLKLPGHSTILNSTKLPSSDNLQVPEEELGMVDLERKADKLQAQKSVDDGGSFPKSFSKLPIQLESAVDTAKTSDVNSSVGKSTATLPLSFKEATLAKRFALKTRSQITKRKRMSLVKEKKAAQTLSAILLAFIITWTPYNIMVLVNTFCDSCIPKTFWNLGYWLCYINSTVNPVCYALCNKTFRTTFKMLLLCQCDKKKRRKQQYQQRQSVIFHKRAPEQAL

[9] = target: T4, Muscarinic acetylcholine receptor M5 (Homo sapiens) (UniProt P08912); test: Inositol phosphate(PI) accumulation in CHO cells expressing Muscarinic acetylcholine receptor M5 as maximal response at 100 uM relative to carbachol; assay type: functional, cell-based
T4 sequence (whole entry): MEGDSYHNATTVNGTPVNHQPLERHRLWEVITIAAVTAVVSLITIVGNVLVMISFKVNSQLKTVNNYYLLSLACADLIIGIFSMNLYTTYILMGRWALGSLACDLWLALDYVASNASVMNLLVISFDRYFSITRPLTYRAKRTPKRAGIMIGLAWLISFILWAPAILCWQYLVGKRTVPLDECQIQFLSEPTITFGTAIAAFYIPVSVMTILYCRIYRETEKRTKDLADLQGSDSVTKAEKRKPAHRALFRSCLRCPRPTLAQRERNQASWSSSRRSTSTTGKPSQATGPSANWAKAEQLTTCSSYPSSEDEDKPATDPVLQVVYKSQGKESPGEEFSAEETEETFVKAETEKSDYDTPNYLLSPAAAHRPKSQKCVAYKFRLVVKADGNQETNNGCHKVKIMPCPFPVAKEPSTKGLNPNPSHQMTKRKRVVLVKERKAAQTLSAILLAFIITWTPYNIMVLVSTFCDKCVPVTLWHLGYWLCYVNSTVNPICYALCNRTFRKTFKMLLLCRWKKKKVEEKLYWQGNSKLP

[10] = target: T2, Muscarinic acetylcholine receptor M2; test: Binding affinity of [3H]QNB to CHO cells expressing human Muscarinic acetylcholine receptor M2; assay type: cell-based
[11] = target: T5, Muscarinic acetylcholine receptor M2 (Homo sapiens) (UniProt P08172); test: Reversal of forskolin-stimulated accumulation of […] in transfected CHO cells, against Muscarinic acetylcholine receptor M2; Not active up to 1 mM; assay type: functional, cell-based
T5 sequence (whole entry): T2 sequence (P08172 whole entry)

[12] = target: T6, Muscarinic acetylcholine receptor M4 (Homo sapiens) (UniProt P08173); test: Reversal of forskolin-stimulated accumulation of […] in transfected CHO cells, against Muscarinic acetylcholine receptor M4; Not active; assay type: functional, cell-based
T6 sequence (whole entry): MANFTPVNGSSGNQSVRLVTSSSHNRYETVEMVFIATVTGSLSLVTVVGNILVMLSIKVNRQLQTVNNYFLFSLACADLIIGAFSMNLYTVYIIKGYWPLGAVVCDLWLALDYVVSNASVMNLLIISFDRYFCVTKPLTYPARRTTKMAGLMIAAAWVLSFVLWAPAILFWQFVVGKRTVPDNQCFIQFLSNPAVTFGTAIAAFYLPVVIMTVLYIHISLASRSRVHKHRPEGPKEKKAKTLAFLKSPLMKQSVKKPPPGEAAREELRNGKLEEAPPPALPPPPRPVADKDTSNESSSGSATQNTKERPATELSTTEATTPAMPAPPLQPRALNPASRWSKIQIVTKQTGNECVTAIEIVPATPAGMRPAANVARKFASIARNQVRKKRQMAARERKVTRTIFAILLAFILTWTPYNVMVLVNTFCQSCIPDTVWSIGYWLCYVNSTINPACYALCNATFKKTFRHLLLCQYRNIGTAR

[13] = target: Muscarinic acetylcholine receptor M3 (Homo sapiens) (UniProt P20309); test: Stimulations of inositol phosphate(PI) accumulation in transfected CHO cells in Muscarinic acetylcholine receptor M3 values are the maximal response obtained from the compound tested at 100 uM normalized to the effect of carbachol.; assay type: functional, cell-based
[14] = target: T4, Muscarinic acetylcholine receptor M5 (Homo sapiens); test: Stimulations of inositol phosphate(PI) accumulation in transfected CHO cells in Muscarinic acetylcholine receptor M5 values are the maximal response obtained from the compound tested at 100 uM normalized to the effect of carbachol.; assay type: functional, cell-based
[15] = target: T3, Muscarinic acetylcholine receptor M1 (Homo sapiens); test: Stimulations of inositol phosphate(PI) accumulation in transfected CHO cells in Muscarinic acetylcholine receptor M1 values are the maximal response obtained from the compound tested at 100 uM normalized to the effect of carbachol.; assay type: functional, cell-based
[16] = target: T3, Muscarinic acetylcholine receptor M1 (Homo sapiens); details: NIH3T3
[17] = target: T5, Muscarinic acetylcholine receptor M2 (Homo sapiens); test: Amplification of transfected NIH3T3 cells was measured in Muscarinic acetylcholine receptor M2 required to produce half maximal effect; assay type: functional, cell-based
[18] = target: T4, Muscarinic acetylcholine receptor M5 (Homo sapiens); test: Maximal response obtained for each drug normalized to effect of carbachol in Muscarinic acetylcholine receptor M5; assay type: functional
[19] = target: T4, Muscarinic acetylcholine receptor M5 (Homo sapiens); test: Amplification of transfected NIH3T3 cells was measured in Muscarinic acetylcholine receptor M5 required to produce half maximal effect; assay type: functional, cell-based
[20] = target: T5, Muscarinic acetylcholine receptor M2 (Homo sapiens); test: Maximal response obtained for each drug normalized to effect of carbachol in Muscarinic acetylcholine receptor M2; assay type: functional
[21] = target: T3, Muscarinic acetylcholine receptor M1 (Homo sapiens); test: Stimulation of inositol phosphate(PI) accumulation in CHO cells expressing Muscarinic acetylcholine receptor M1 as maximal response at 100 uM relative to carbachol; assay type: functional, cell-based
[22] = target: T6, Muscarinic acetylcholine receptor M4 (Homo sapiens); test: Amplification of transfected NIH3T3 cells was measured in Muscarinic acetylcholine receptor M4 required to produce half maximal effect; assay type: functional, cell-based
[23] = target: T6, Muscarinic acetylcholine receptor M4 (Homo sapiens); test: Maximal response obtained for each drug normalized to effect of carbachol in Muscarinic acetylcholine receptor M4; assay type: functional
[24] = target: Muscarinic acetylcholine receptor M3 (Homo sapiens) (UniProt P20309); details: NIH3T3
Description: Amplification of transfected NIH3T3 cells was measured in Muscarinic acetylcholine receptor M3 required to produce half maximal effect

[25] = target: T6, Muscarinic acetylcholine receptor M4 (Homo sapiens); test: Reversal of forskolin-stimulated accumulation of […] in transfected CHO cells, against Muscarinic acetylcholine receptor M4; NA=Not active up to 1 mM; assay type: functional, cell-based
[26] = target: T3, Muscarinic acetylcholine receptor M1 (Homo sapiens); test: Maximal response obtained for each drug normalized to effect of carbachol in Muscarinic acetylcholine receptor M1; assay type: functional
[27] = target: Muscarinic acetylcholine receptor M3 (Homo sapiens) (UniProt P20309); test: Maximal response obtained for each drug normalized to effect of carbachol in Muscarinic acetylcholine receptor M3; assay type: functional
[28] = target: T4, Muscarinic acetylcholine receptor M5 (Homo sapiens); test: Stimulations of inositol phosphate(PI) accumulation in transfected CHO cells in Muscarinic acetylcholine receptor M5 values are the maximal response obtained from the compound tested at 100 uM normalized to the effects of carbachol.; assay type: functional, cell-based

SMILES: CC(C)=CCO/N=C1\CN2CCC1C2 (stereo not given)
- Ratio [1]: 179
- IC50 [2]: 216 nM
- IC50 [3]: 7.08 nM
- IC50 [4]: 1270 nM
- IC50 [5]: 519 nM

- Ratio [1]: 203
- CCh [6]: 41%
- IC50 [7]: 3340 nM
- CCh [8]: 4%
- CCh [9]: 3%
- IC50 [10]: 20600 nM
SMILES: Clc1cccc(C#CCO/N=C2\CN3CCC2C3)c1 (stereo not given)

SMILES: C(#Cc1ccccc1)CO/N=C1\CN2CCC1C2 (stereo not given)
- ED50 [11]: inactive
- ED50 [12]: inactive
- Stimulations [13]: 8%
- Stimulations [14]: 1%
- Ratio [1]: 108
- Stimulations [15]: 40%

- ED50 [16]: 42 nM
- ED50 [11]: inactive
- ED50 [17]: 1320 nM
- Ratio [1]: 250
- CCh [18]: 103%
- ED50 [19]: 5990 nM
- CCh [20]: 81%
- IC50 [7]: 7680 nM
- CCh [21]: 82%
- ED50 [22]: 93 nM
- CCh [8]: 6%
- CCh [23]: 68%
- ED50 [24]: 3860 nM
- IC50 [10]: 52000 nM
- ED50 [25]: inactive
- CCh [26]: 30%
- CCh [27]: 93%
- CCh [28]: 11%
SMILES: COc1cccc(C#CCO/N=C2\CN3CCC2C3)c1 (stereo not given)
